Consider three molecules from patent publication US20040071718A1, “Local nasal immunotherapy for allergen-induced airway inflammation” (priority 2002, published 2004).

Marks after values point to notes of the source that are not given here.

Common to all, as to assay type: in vivo
In experiment [1] the test system is Balb/c mice. Description: Free radical production in BALF (chemiluminescence) after LNIT. The following applies: FIG. 4, chemiluminescence, expressed as counts/10 seconds, compared to NS control. The procedure:
(§1) Mice were immunized by way of an intraperitoneal (IP) injection of 1 μg/0.1 mL rDp2 emulsified in 4.0 mg/0.062mL aluminum hydroxide Al(OH)3 (Whitehall Lab Ltd. Punchbowl, NSW, Australia) on day 0 and day 7. Following immunization, local nasal immunotherapy (LNIT) was conducted daily from day 14 to day 35 with Dp2 28-40, Dp2 28-40A, FIP alone or FIP mixed with either Dp2 28-40 or Dp2 28-40A (FIP, 50 μg/mouse/day; Dp2 peptide, 1 μg/20 μL) in PBS with 10% glycerol. Normal saline (NS) and irrelevant allergen Bt were used as a negative control. […] On day 28, mice were lightly anesthetized with an IP injection of 60 mg/kg of sodium pentobarbital (Sigma Chemical Co., St Louis, Mo., U.S.A.) and inoculated intratracheally (IT) with 1 μg/50 μL of rDp 2 on day 28 and day 35. Two days subsequent to the second IT inoculation, the mice were sacrificed following the assessment of their pulmonary function (FIG. 1).
Using chemiluminescence, free radicals in the BAL fluid were measured immediately after each experiment. The total amounts of free radical were detected and expressed as counts/10 seconds.

Experiment [2] relates to Balb/c mice. In words: Leukocyte subpopulations in BALF of rDp2-sensitized mice after local nasal immunotherapy (LNIT). The following applies: for Eosinophil / Lymphocyte / Macrophage / Neutrophil / Total cell: BALF; for anti-inflammatory effect on airway inflammation: Example 1, BALF inflammatory cells compared to the NS groups. The procedure: Male Balb/c mice were obtained from the National Laboratory Breeding Research Center in Taiwan and were raised in a specific pathogen-free environment. The mice used were between six and eight weeks of age. Groups of six mice were caged separately according to their treatment. Recombinant Dermatophoides pteronyssinus group 2 (rDp2) was prepared as previously described(Tsai J J, et al. Int Arch Allergy Immunol 2000;121:205-10). Dp2 28-40 and Dp2 28-40A were obtained from Dr. Jonathan Lamb (Respiratory Medicine Unit, Edinburgh University, Medical School, Edinburgh, UK) (Verhoef A, and Lamb J R. J Immunol 2000;164:6034-6040). FIP was obtained from Dr. Ko Jiunn-Liang (Institute of Toxicology, Chung Shan Medical University, Taichung, R O C) (J L Ko, et al. Eur. J. Biochem. 1995;228:244-249).
as §1
Subsequent to pulmonary function measurement having been completed, bronchoalveolar lavage (BAL) was performed using the following procedure. BAL fluids were collected with lmL sterile endotoxin-free saline washes of each lung via the trachea for each mouse. BAL cells were washed once with PBS by centrifugation at 200×g at 4° C. Subsequent to washing, the cells were resuspended in RPMI-1640 (Sigma Chemical Co.). The total leukocyte count in BAL fluids was determined using a hemocytometer. The BAL fluids were aspirated and stored at −70° C. until needed for assay purposes. Subsequent to total leukocyte counting, a cytospin preparation of 100 μL BAL fluids (2×10^5 cells/mL) was conducted, the cells being cytocentrifuged directly onto glass slides at 350 r.p.m. for five minutes using a Cytospin 3 cytocentrifuge (Shandon Scientific Limited, Astmoor, Runcorn, UK), and then stained with Liu stain (Tonyar Diagnostic Inc, Taipei & Hien, Taiwan). The differential counts were performed for a total of 200 leukocyte cells.

Experiment [3] relates to Balb/c mice. In words: Pulmonary function: airway hypersensitivity to methacholine (Penh, barometric plethysmograph) after LNIT. The following applies: compared to NS; for Penh after methacholine challenge, early phase: Example 1, FIG. 5A, 30 min after rDp2 IT challenge; for Penh after methacholine challenge, late phase: Example 1, FIG. 5B, 24hrs after rDp2 IT challenge. The procedure: as §1
Each mouse was placed inside a barometric plethysmograph (Buxco Electronics, Troy, N.Y.). The plethysmograph has two chambers: one is the main or animal chamber (ID 7.5 cm and 5.5 cm height) and the other is the reference chamber (ID 7.5 cm and 3.5 cm height). A differential pressure transducer was employed to detect the pressure difference between the two chambers. The pressure signal was amplified, digitized via an A/D convert card, and sent to a computer with a BioSystem XA program (Buxco, Electronics, Troy, N.Y.), which sampled and calculated the desired respiratory parameters. These parameters were enhanced pause (Penh), tidal volume, breathing frequency, peak inspiratory flow, peak expiratory flow, end-inspiratory pause, and end-expiratory pause.
Aerosol was generated by placing 5 mL of saline or methacholine (Sigma, 1.56 to 25.00 mg/mL) solution in the cup of an ultrasonic nebulizer (DeVilbiss, Somerset, Pa.). It was delivered via a connecting tube and a three-way connector to the animal chamber of the plethysmograph (Hamelmann E, et al. Am J Respir Crit Care Med. 1997;156:766-75). The median size of the aerosol was approximately 3 μm and the range of the sizes was from 1 to 5 μm, according to the manufacturers information. The aerosol usually filled the chamber within 15-20 sec. At first, each mouse inhaled saline aerosol for 3 min. Then the respiratory parameters were measured for 3 min. Then, inhalation of the saline aerosol was replaced by inhalation of the aerosol of methacholine solution for 3 min. In both cases, the aerosol in the chamber was cleared immediately after the exposure. Respiratory parameters were then measured for 3 min following the inhalation of methacholine. A dose-response curve for methacholine was calculated starting from a low dose of 0.031 mg/dL and moving to a higher dose of 25 mg/dL. There was a 15 min interval between exposures. The percentage changes of Penh obtained from each dose of mechacholine were accumulated area under the curve and the values were calculated as means±SEM. Differences in parameters among groups were analyzed by variance.

[4] abbreviates: Example 1, LNIT day 14-35, rDp2 IT challenge, mean ± SEM of six animals.
[5] abbreviates: Example 2 (FIP study), mean ± SEN of six mice.

Regarding “Dp2 28-40: Dermatophoides pteronyssinus group 2 (Dp2) epitope peptide, residues 28-40, amino acid sequence ID No. 1 (IIHRGKPFQLEAV; listed as Dermatophoides pteronyssinus)”, in the experiment on Balb/c mice [1], the “free radical production in the BAL fluid” value is on record as “significantly inhibited”. In addition, in the experiment on Balb/c mice [2] (setting [4]), the Eosinophil is reported as 3.5 ± 0.5* 10^4 cells/mL, the Lymphocyte was 11.8 ± 0.8* 10^4 cells/mL, the Macrophage was 31.0 ± 2.5* 10^4 cells/mL and the Neutrophil is 7.2 ± 1.5* 10^4 cells/mL. Besides, the Total cell in the experiment with Balb/c mice [2] (setting [4]) is listed as 53.3 ± 4.1* 10^4 cells/mL. Also, the “anti-inflammatory effect on airway inflammation” value in the experiment on Balb/c mice [2] is given as “best anti-inflammatory effect”. In the experiment on Balb/c mice [3], the “Penh after methacholine challenge, early phase” value is “significantly decreased” and the “Penh after methacholine challenge, late phase” value was “significantly decreased”.
Turning to “Dp2 28-40A: altered TCR ligand of Dp2 28-40, residues at positions 34 and 36 substituted by alanine; amino acid sequence ID No. 2 (IIHRGKAFALEAV; listed as Dermatophoides pteronyssinus)”, in the experiment with Balb/c mice [2] (setting [4]), the Eosinophil is 3.0 ± 1.0* 10^4 cells/mL, the Lymphocyte is reported as 14.6 ± 3.3* 10^4 cells/mL, the Macrophage was 38.4 ± 7.2* 10^4 cells/mL and the Neutrophil is 8.2 ± 1.1* 10^4 cells/mL. In addition, the Total cell in the experiment with Balb/c mice [2] (setting [4]) was 65.0 ± 3.2* 10^4 cells/mL. Further, the “anti-inflammatory effect on airway inflammation” value in the experiment on Balb/c mice [2] was “weaker than Dp2 28-40”. Moreover, in the experiment with Balb/c mice [3], the “Penh after methacholine challenge, early phase” value is recorded as “significantly decreased” and the “Penh after methacholine challenge, late phase” value was “significantly decreased”.

B1: FIP: fungal immunomodulatory protein isolated from Flammalina velutipes, amino acid sequence ID No. 3 (protein)
chain: SATSLTFQLAVLVKKIDFDYTPNWGRGTPSSYIDNLTFPKVLTDKKYSYRVVVNGSDLGVESNFAVTPSGGQTINFLQYNKGYGVADTKTIQVFVVIPDTGNSEEYIIAEWKKT
modifications: Flammalina velutipes
Turning to B1, in the experiment on Balb/c mice [2] (setting [5]), the Eosinophil was 6.3 ± 1.3 ×10^4/mL, the Lymphocyte was 13.0 ± 1.8 ×10^4/mL, the Macrophage is given as 37.0 ± 7.4 ×10^4/mL and the Neutrophil is 9.0 ± 2.4 ×10^4/mL. Moreover, the Total cell with Balb/c mice [2] (setting [5]) was 65.0 ± 10.5 ×10^4/mL. Also, in the experiment with Balb/c mice [2] (Example 2, text summary of Table 3), the “airway-inflammation level (cellular component in BALF)” value was “diminish the airway-inflammation level”. In addition, the “penh, early phase” value in the experiment on Balb/c mice [3] (Example 2, FIG. 8A, 30 min after rDp2 intratracheal challenge) is on record as “significantly decreased”. Further, the “penh, late phase” value in the experiment on Balb/c mice [3] (Example 2, FIG. 8B, 24 hr) was “did not reach a statistically significant level”.
